# Active and inactive are the calls of the source. No cut-off for these calls is given here.
# Tests used:
# CCRF S-180 [1] = experiment: Antitumor activity against mouse S180 solid tumor cells implanted in Swiss albino mouse assessed as tumor growth inhibition at 22 mg/kg, ip measured on day 13; assay type: functional; settings: CCRF S-180, ip, 312 h, route intraperitoneal, read-out: TGI
# Mus musculus [2] = experiment: Toxicity in mouse S180 solid tumor cells implanted Swiss albino mouse assessed as mouse mortality at 22 mg/kg, ip measured on day 13; assay type: organism-based; design: dose 22 mg/kg, route intraperitoneal; settings: in vivo
# CCRF S-180 [3] = experiment: Antitumor activity against mouse S180 ascites cells implanted in Swiss albino mouse assessed as tumor growth inhibition at 22 mg/kg, ip measured on day 12; assay type: functional; settings: CCRF S-180, ip, 288 h, route intraperitoneal, read-out: TGI
# Mus musculus [4] = experiment: Toxicity in mouse S180 ascites cells implanted Swiss albino mouse assessed as mouse mortality at 22 mg/kg, ip measured on day 13; assay type: organism-based; design: dose 22 mg/kg, route intraperitoneal; settings: in vivo
# PC-3 [5] = experiment: Induction of autophagy in human PC3 cells assessed as increase LC3 intracellular localization at 100 nM to 300 nM after 24 hrs by immunocytochemistry; assay type: functional, cell-based
# PC-3 [6] = experiment: Induction of autophagy in human PC3 cells assessed as increase in conversion of LC3-I to LC3-II at 0.1 to 0.3 uM after 24 hrs by Western blotting method; assay type: functional, cell-based
# PC-3 [7] = experiment: Induction of autophagy in human PC3 cells assessed as reduction in SQSTM1/P62 protein levels at 0.1 to 0.3 uM after 24 hrs by Western blotting method; assay type: functional, cell-based
# PC-3 [8] = experiment: Induction of autophagy in human PC3 cells assessed as increase in Beclin-1 protein levels at 0.1 to 0.3 uM after 24 hrs by Western blotting method; assay type: functional, cell-based
# PC-3 [9] = experiment: Inhibition of Akt S473 phosphorylation in human PC3 cells at 0.1 to 0.3 uM after 24 hrs by Western blotting method; assay type: cell-based
# PC-3 [10] = experiment: Inhibition of Akt in human PC3 cells assessed as reduction in mTOR S2448 phosphorylation at 0.1 to 0.3 uM after 24 hrs by Western blotting method; assay type: cell-based
# [11] = Effect on total Akt protein levels in human PC3 cells at 0.1 to 0.3 uM after 24 hrs by Western blotting method; assay type: ADME, cell-based; settings: pc-3, 24 h
# [12] = Effect on total mTOR protein levels in human PC3 cells at 0.1 to 0.3 uM after 24 hrs by Western blotting method; assay type: ADME, cell-based; settings: pc-3, 24 h
# [13] = Reduction in Bcl-2 protein expression in human PC3 cells at 0.1 to 0.3 uM after 24 hrs by Western blotting method; assay type: functional, cell-based; settings: PC-3
# [14] = Cytotoxicity against human PC3 cells after 48 hrs by MTT assay; assay type: functional, cell-based; settings: PC-3, 48 h
# A549 = experiment: Cytotoxicity against human A549 cells after 48 hrs by MTT assay; assay type: functional, cell-based; settings: A549, 48 h
# HeLa = experiment: Cytotoxicity against human HeLa cells after 48 hrs by MTT assay; assay type: functional, cell-based
# PC-3 [15] = experiment: Induction of autophagy in human PC3 cells assessed as acidic vesicular organelles formation at 100 to 300 nM after 24 hrs by acridine orange staining based fluorescence microscopy; assay type: functional, cell-based
# PC-3 [16] = experiment: Induction of autophagy in human PC3 cells assessed as autophagosomes formation at 100 to 300 nM after 24 hrs by acridine orange staining based fluorescence microscopy; assay type: functional, cell-based
# PC-3 [17] = experiment: Induction of apoptosis in human PC3 cells assessed as nuclear condensation at 100 to 300 nM after 24 hrs by DAPI staining assay; assay type: functional, cell-based
# PC-3 [18] = experiment: Induction of apoptosis in human PC3 cells assessed as membrane blebbing at 100 to 300 nM after 24 hrs by DAPI staining assay; assay type: functional, cell-based
# PC-3 [19] = experiment: Induction of autophagy in human PC3 cells at 100 to 300 nM after 24 hrs by MDC staining based fluorescence microscopy; assay type: functional, cell-based
# PC-3 [20] = experiment: Induction of autophagy in human PC3 cells at 100 to 300 nM after 24 hrs by acridine orange staining based fluorescence microscopy; assay type: functional
# PC-3 [21] = experiment: Induction of autophagy in human PC3 cells assessed as LC3 protein accumulation in autophagosomes after 24 hrs by fluorescence microscopy; assay type: functional, cell-based
# PC-3 [22] = experiment: Induction of autophagy in human PC3 cells assessed as increase in punctate EGFP-LC3 pattern in autophagosomes at 100 nM to 300 nM after 24 hrs by fluorescence microscopy; assay type: functional, cell-based
# PC-3 [23] = experiment: Induction of apoptosis in human PC3 cells assessed as caspase-3 cleavage at 0.1 to 0.3 uM after 24 hrs by Western blotting method; assay type: functional, cell-based
# PC-3 [24] = experiment: Induction of apoptosis in human PC3 cells assessed as increase in Annexin-V positive cells at 0.1 to 0.3 uM after 24 hrs; assay type: functional, cell-based
# PC-3 [25] = experiment: Induction of apoptosis in human PC3 cells assessed as caspase-3 cleavage at 300 nM after 24 hrs by Western blotting method; assay type: functional, cell-based
# PC-3 [26] = experiment: Induction of autophagy in human PC3 cells at 300 nM pre-treated with 5 mM autophagy inhibitor 3-MA for 1 hr before compound exposure for 24 hrs by acridine orange staining based fluorescence microscopy; assay type: functional, cell-based
# PC-3 [27] = experiment: Induction of autophagy in human PC3 cells at 300 nM pre-treated with 20 uM apoptosis inhibitor z-VAD-fmk for 1 hr before compound exposure for 24 hrs by acridine orange staining based fluorescence microscopy; assay type: functional, cell-based
# PC-3 [28] = experiment: Induction of apoptosis in human PC3 cells at 300 nM pre-treated with 5 mM autophagy inhibitor 3-MA for 1 hr before compound exposure for 24 hrs by DAPI staining method; assay type: functional, cell-based
# PC-3 [29] = experiment: Induction of apoptosis in human PC3 cells at 300 nM pre-treated with 20 uM apoptosis inhibitor z-VAD-fmk for 1 hr before compound exposure for 24 hrs by DAPI staining method; assay type: functional, cell-based
# PC-3 [30] = experiment: Increase in autophagy in human PC3 cells at 300 nM pre-treated with 20 uM apoptosis inhibitor z-VAD-fmk for 1 hr before compound exposure for 24 hrs by acridine orange staining based fluorescence microscopy; assay type: functional, cell-based
# PC-3 [31] = experiment: Increase in PARP-cleavage in human PC3 cells at 0.3 uM in presence of Beclin-1 siRNA after 24 hrs by immunoblotting method; assay type: functional, cell-based
# PC-3 [32] = experiment: Induction of autophagy in human PC3 cells over-expressing Bcl-2 at 300 nM pre-treated with 20 uM apoptosis inhibitor z-VAD-fmk for 1 hr before compound exposure for 24 hrs by acridine orange staining based fluorescence microscopy; assay type: functional, cell-based
# PC-3 [33] = experiment: Induction of apoptosis in human PC3 cells over-expressing Bcl-2 at 300 nM pre-treated with 20 uM apoptosis inhibitor z-VAD-fmk for 1 hr before compound exposure for 24 hrs by DAPI staining method; assay type: functional, cell-based
# PC-3 [34] = experiment: Induction of autophagy in human PC3 cells over-expressing Bcl-2 at 300 nM pre-treated with 5 mM autophagy inhibitor 3-MA for 1 hr before compound exposure for 24 hrs by acridine orange staining based fluorescence microscopy; assay type: functional, cell-based
# PC-3 [35] = experiment: Induction of autophagy in human PC3 cells over-expressing DS-Red-Beclin-1 at 300 nM pre-treated with 20 uM apoptosis inhibitor z-VAD-fmk for 1 hr before compound exposure for 24 hrs by acridine orange staining based fluorescence microscopy; assay type: functional, cell-based
# CCRF S-180 [36] = experiment: Antitumor activity against mouse S180 solid tumor cells implanted in Swiss albino mouse assessed as tumor growth inhibition at 5 mg/kg, ip measured on day 13; assay type: functional; settings: CCRF S-180, ip, 312 h, route intraperitoneal, read-out: TGI
# CCRF S-180 [37] = experiment: Antitumor activity against mouse S180 solid tumor cells implanted in Swiss albino mouse assessed as tumor growth inhibition at 10 mg/kg, ip measured on day 13; assay type: functional; settings: CCRF S-180, ip, 312 h, route intraperitoneal, read-out: TGI
# Mus musculus [38] = experiment: Toxicity in mouse S180 solid tumor cells implanted Swiss albino mouse assessed as mouse mortality at 5 mg/kg, ip measured on day 13; assay type: organism-based; design: dose 5 mg/kg, route intraperitoneal; settings: in vivo
# Mus musculus [39] = experiment: Toxicity in mouse S180 solid tumor cells implanted Swiss albino mouse assessed as mouse mortality at 10 mg/kg, ip measured on day 13; assay type: organism-based; design: dose 10 mg/kg, route intraperitoneal; settings: in vivo
# CCRF S-180 [40] = experiment: Antitumor activity against mouse S180 ascites cells implanted in Swiss albino mouse assessed as tumor growth inhibition at 5 mg/kg, ip measured on day 12; assay type: functional; settings: CCRF S-180, ip, 288 h, route intraperitoneal, read-out: TGI
# CCRF S-180 [41] = experiment: Antitumor activity against mouse S180 ascites cells implanted in Swiss albino mouse assessed as tumor growth inhibition at 10 mg/kg, ip measured on day 12; assay type: functional; settings: CCRF S-180, ip, 288 h, route intraperitoneal, read-out: TGI
# Mus musculus [42] = experiment: Toxicity in mouse S180 ascites cells implanted Swiss albino mouse assessed as mouse mortality at 5 mg/kg, ip measured on day 13; assay type: organism-based; design: dose 5 mg/kg, route intraperitoneal; settings: in vivo
# Mus musculus [43] = experiment: Toxicity in mouse S180 ascites cells implanted Swiss albino mouse assessed as mouse mortality at 10 mg/kg, ip measured on day 13; assay type: organism-based; design: dose 10 mg/kg, route intraperitoneal; settings: in vivo
structure (smiles),measurement,setting,value
O=c1[nH]cc(F)c(=O)[nH]1 [FLUOROURACIL],inhibition in vivo at 22 mg/kg,CCRF S-180 [1],52.5%
same,Activity,Mus musculus [2],Non-toxic
same,inhibition in vivo at 22 mg/kg,CCRF S-180 [3],96.9%
same,Activity,Mus musculus [4],Non-toxic
CC1(C)CCC[C@]2(C)[C@@H](CC[C@@](C)(O)/C=C/c3ccc(F)cc3)[C@](C)(O)CC[C@@H]12,Activity,PC-3 [5],Active
same,Activity,PC-3 [6],Dose-dependent effect
same,Activity,PC-3 [7],Dose-dependent effect
same,Activity,PC-3 [8],Dose-dependent effect
same,inhibition,PC-3 [9],Active
same,inhibition,PC-3 [10],Active
same,Activity,[11],Non-toxic
same,Activity,[12],Non-toxic
same,Activity,[13],Dose-dependent effect
same,IC50,[14],0.082 µM
same,IC50,A549,3.1 µM
same,IC50,HeLa,3.46 µM
same,Activity,PC-3 [15],Active
same,Activity,PC-3 [16],Active
same,Activity,PC-3 [17],Active
same,Activity,PC-3 [18],Active
same,Activity,PC-3 [19],Active
same,Activity,PC-3 [20],Active
same,Activity,PC-3 [21],Active
same,Activity,PC-3 [22],Active
same,Activity,PC-3 [23],Active
same,Activity,PC-3 [24],Active
same,Activity,PC-3 [25],Active
same,Activity,PC-3 [26],inactive
same,Activity,PC-3 [27],inactive
same,Activity,PC-3 [28],inactive
same,Activity,PC-3 [29],inactive
same,Activity,PC-3 [30],Active
same,Activity,PC-3 [31],inactive
same,Activity,PC-3 [32],inactive
same,Activity,PC-3 [33],inactive
same,Activity,PC-3 [34],Active
same,Activity,PC-3 [35],Active
same,inhibition in vivo at 5 mg/kg,CCRF S-180 [36],32.5%
same,inhibition in vivo at 10 mg/kg,CCRF S-180 [37],39.8%
same,Activity,Mus musculus [38],Non-toxic
same,Activity,Mus musculus [39],Non-toxic
same,inhibition in vivo at 5 mg/kg,CCRF S-180 [40],64.7%
same,inhibition in vivo at 10 mg/kg,CCRF S-180 [41],74.9%
same,Activity,Mus musculus [42],Non-toxic
same,Activity,Mus musculus [43],Non-toxic
